Data as given in US6489317B1, “Method for eradication of Helicobacter pylori” (priority 1998, dated 2002).

Tested on: H. pylori
Test: E-test (epsilon test, AB Biodisc) antibiotic sensitivity of H. pylori cultured from patients
Assay type: cell-based, Helicobacter pylori
Text: The E-test is used as a graded antibiotic sensitivity detecting strip for examining resistance of H.pylori.

SMILES: CO[C@H]1/C=C/O[C@@]2(C)Oc3c(C)c(O)c4c(c3C2=O)C2=NC3(CCN(CC(C)C)CC3)NC2=C(NC(=O)/C(C)=C\C=C\[C@H](C)[C@H](O)[C@@H](C)[C@@H](O)[C@@H](C)[C@H](OC(C)=O)[C@@H]1C)C4=O [Rifabutin]
- E. Test Rifabutin (H. pylori isolate of each patient): < 0.002 µg/mL
- E. Test Rifabutin Result (H. pylori isolate of each patient, Resistant/Sensitive): Sensitive
- sensitivity of infection to rifabutin (all cases of H. pylori infection resistant to one or both of metronidazole and clarithromycin): sensitive
